In US20130252917A1, “COMBINATION THERAPY OF 4-(3-(2H-1,2,3-TRIAZO-2-YL)PHENYLAMINO)-2-((1R,2S)-2-AMINOCYCLOHEXYLAMINO)PYRIMIDINE-5-CARBOXAMIDE AND FLUDARABINE” (priority 2010, published 2013):
Like-named read-outs stand apart in the source and are kept apart here.

Tested on: primary CLL cells
Experiment: tetrazolium-based cell viability assay (MTS) on primary CLL cells, Compound 1 with or without fludarabine
Design: species or system human
Conditions: for IC50: Homo sapiens, CLL cell
Description: Fresh primary CLL cells from 42 CLL patients were purified using a Ficoll gradient. Purified cells were then added to wells (5×10^4 per well) containing 10% serum serum containing media and four serial dilutions of Compound 1 (ranging from 10 nM to 10 μM) with or without different concentrations of fludarabine (also ranging from 10 nM to 10 μM). […] The viability data were normalized to untreated controls and were used to calculate IC50 values. […] Comput. Biomed. Res. 199, 32(2): 145-160).

SMILES: NC(=O)c1cnc(N[C@@H]2CCCC[C@@H]2N)nc1Nc1cccc(-n2nccn2)c1 [Compound 1, 4-(3-(2H-1,2,3-triazol-2-yl)phenylamino)-2-((1R,2S)-2-aminocyclohexylamino)pyrimidine-5-carboxamide]
- IC50 (read-out: median IC50 (cell viability)): 394 nM
- IC50 (three of seven samples with the 17p deletion that had significant activity, read-out: IC50 (cell viability)): 37.5 nM
- cell viability (samples from relapsed patients and with poor risk features (ZAP70 and/or CD38 expression, 11q deletion, unmutated IgVh)): significant decreases in cell viability
